These are literature values, as cited in paper PMC5598522 (Toxicology Reports, 2014).

For series [1] the following is noted: cited from earlier work.
The next series has as its system rats. The conditions noted are these: cited from earlier work.
The conditions of series [2]: Wistar rats; cited from earlier work.

Take `COC(=O)[C@H](c1ccccc1Cl)N1CCc2sccc2C1` [Clopidogrel]: the “Tumor incidences in 2 year carcinogenicity bioassay” value in series [1] was “did not alter tumor incidences”. On to `CC(C)C[C@H]1C(=O)N2CCC[C@H]2[C@]2(O)O[C@](NC(=O)[C@@H]3C=C4c5cccc6[nH]c(Br)c(c56)C[C@H]4N(C)C3)(C(C)C)C(=O)N12` [bromocriptine], for which, in the series on rats, the “Uterine and mammary tumors” value is “increases uterine and decreases mammary tumors only in rats”. Besides, the Weight gain entry in series [2] is reported as “inhibited weight gain”.
